Data as given in the Biogen ADME set (Fang et al. 2023).
Converted amounts (≈) assume the structure as drawn.

Settings: for aqueous solubility: pH 6.8

intrinsic clearance, human liver microsomes | intrinsic clearance, rat liver microsomes | aqueous solubility | MDR1-MDCK efflux ratio | fraction unbound, human plasma | fraction unbound, rat plasma | SMILES
≤ 4.74 mL/min/kg | ≤ 10.7 mL/min/kg | 73.8 µg/mL (≈ 285 µM) |  |  |  | C#CCN1CCN(C(=O)CCS(C)(=O)=O)CC1
≤ 4.74 mL/min/kg | ≤ 10.7 mL/min/kg | 60 µg/mL (≈ 181 µM) | 3.54 |  |  | Cc1nc(N2CCN(C)CC2)nc(C)c1NC(=O)C1CCCCC1
14.7 mL/min/kg | 233 mL/min/kg | 47.8 µg/mL (≈ 126 µM) |  |  |  | O=C(C1CC1c1ccc(F)cc1)N1CCC(n2c(=O)[nH]c3ccccc32)CC1 (stereo unspecified)
11 mL/min/kg | 305 mL/min/kg |  |  |  |  | Cc1ccn(-c2ccc(NCC3CC3)nn2)n1
≤ 4.74 mL/min/kg | 113 mL/min/kg |  | 21.2 |  |  | CN(CC1(CO)CCCC1)C(=O)CCN1CCCCC1=O
47.2 mL/min/kg | 1150 mL/min/kg |  |  |  |  | Nc1nc(N2CCN(CC3CCCC3)C(=O)C2)cc(-n2cccn2)n1
24.9 mL/min/kg | 228 mL/min/kg |  |  |  |  | CC(=O)N1CCc2c(sc(NC(=O)C(C)C)c2-c2nc3ccccc3s2)C1
9.11 mL/min/kg | 245 mL/min/kg | 53.5 µg/mL (≈ 148 µM) | 5.65 |  |  | O=C(NCCN1CCC(O)(c2cccc(F)c2)CC1)c1cccc(F)c1
5.73 mL/min/kg | 236 mL/min/kg | 62.3 µg/mL (≈ 189 µM) | 39.4 |  |  | CC(=O)N1CCC(C(=O)Nc2nccs2)(c2ccccc2)CC1
19.9 mL/min/kg | 83.7 mL/min/kg | 22.4 µg/mL (≈ 96.5 µM) | 1.26 |  |  | CCCn1ncc2[nH]c(C3CCCCC3)nc21
≤ 4.74 mL/min/kg | ≤ 10.7 mL/min/kg | 32.5 µg/mL (≈ 139 µM) |  |  |  | Cc1nn(C)c2nc(C(C)C)cc(C(=O)O)c12
5.78 mL/min/kg | 151 mL/min/kg | 63.1 µg/mL (≈ 182 µM) | 2.37 |  |  | O=C(c1cccs1)N1C[C@@H]2CCCN(C(=O)c3cccs3)[C@@H]2C1
≤ 4.74 mL/min/kg | 41.7 mL/min/kg | 25.4 µg/mL (≈ 111 µM) | 0.564 |  |  | CC(C)(C)n1cc(CNc2cccnc2)cn1
78.5 mL/min/kg | 90.1 mL/min/kg | 6.1 µg/mL (≈ 19.4 µM) | 0.468 |  |  | O=C(Nc1ccc(F)cc1F)N1CCn2c1nc1ccccc12
206 mL/min/kg | 2510 mL/min/kg | 41 µg/mL (≈ 134 µM) | 0.802 |  |  | c1ccc(CCn2cnc3c2CCN(c2ncccn2)C3)cc1
≤ 4.74 mL/min/kg | ≤ 10.7 mL/min/kg | 23.4 µg/mL (≈ 82.8 µM) | 1.03 |  |  | Cn1cc(NC(=O)c2cn(Cc3ccccc3)nn2)cn1
37.4 mL/min/kg | 1090 mL/min/kg |  | 12.1 |  |  | Cc1cc(C)cc(OCCN(C)C(=O)NCCS(=O)(=O)N(C)C)c1
930 mL/min/kg | 3260 mL/min/kg | 3.9 µg/mL (≈ 9.47 µM) | 5.67 |  |  | O=C(CCc1ccc(Cl)cc1)N1CCCC(c2n[nH]cc2-c2cccc(F)c2)C1 (stereo unspecified)
41.4 mL/min/kg | 168 mL/min/kg | 11.5 µg/mL (≈ 26.6 µM) |  |  |  | Cc1ccc(CNC(=O)CN2CCC(n3nnc4cc(C(F)(F)F)ccc43)CC2)cc1
16.7 mL/min/kg | 836 mL/min/kg | 2.43 µg/mL (≈ 6.97 µM) | 1.95 |  |  | Cc1ccc2c(C(=O)N(C)C)cc(-c3cnc(C(C)C)nc3)nc2c1C
≤ 4.74 mL/min/kg | ≤ 10.7 mL/min/kg |  |  |  |  | O=C(CCC1CCOCC1)Nc1ccc(C(=O)O)cc1

Further lines, the compound ahead of its results:

SMILES | intrinsic clearance, human liver microsomes | intrinsic clearance, rat liver microsomes | aqueous solubility | MDR1-MDCK efflux ratio | fraction unbound, human plasma | fraction unbound, rat plasma
COc1ccc(-c2nc(CN3CCC[C@H](O)C3)no2)cc1 | 11.5 mL/min/kg | 48 mL/min/kg | 36.8 µg/mL (≈ 127 µM) | 0.841 |  | 
CCNc1ccnc(N(C)Cc2nc3ccccc3n2C)n1 | 29.5 mL/min/kg | 434 mL/min/kg | 37 µg/mL (≈ 125 µM) | 1.28 |  | 
CNC(=O)CC1CCN(c2ncccn2)CC1 | ≤ 4.74 mL/min/kg | ≤ 10.7 mL/min/kg | 50 µg/mL (≈ 213 µM) | 0.823 |  | 
Cn1cc(NC(=O)c2ccccc2C(F)(F)F)cn1 | ≤ 4.74 mL/min/kg | ≤ 10.7 mL/min/kg | 37.7 µg/mL (≈ 140 µM) | 0.828 |  | 
O=C(Cc1ccc2c(c1)CCCC2)Nc1ccc(-n2cnnn2)cc1 |  |  | 0.95 µg/mL (≈ 2.85 µM) |  |  | 
COC(=O)c1ccc(NS(=O)(=O)c2ccc3c(c2)n(C)c(=O)n3C)cc1 |  |  | 15.6 µg/mL (≈ 41.6 µM) | 20.5 |  | 
COc1ccc(CNC(=O)c2cc(-c3cncc(C)c3)ncc2-c2nccs2)nc1OC | 17.7 mL/min/kg | 125 mL/min/kg | 9.86 µg/mL (≈ 22 µM) | 9.82 |  | 
COc1ccc([C@H]2c3[nH]c4ccc(Cl)cc4c3CCN2C(=O)Oc2ccc(Cl)cc2)cc1 |  |  | 0.1 µg/mL (≈ 0.214 µM) | 0.432 | 0.326 | 0.568
Cc1nsc(NCc2cncs2)n1 | ≤ 4.74 mL/min/kg | 16.8 mL/min/kg |  | 0.684 |  | 
CCc1cc(CNC(=O)Nc2ccc(N3CCSCC3)cc2)on1 | 35.9 mL/min/kg | 1430 mL/min/kg |  | 19.2 |  | 
CN(C)c1ccnc(C(=O)Nc2ccnn2-c2ccc(C#N)cc2)c1 | 75.2 mL/min/kg | 446 mL/min/kg |  |  |  | 
COc1cc2cc3c(nc2cc1OC)OCCN(C1CCCCC1)C3 | 33.2 mL/min/kg | 1680 mL/min/kg |  | 1.3 |  | 
CC(C)CN(c1ncnc2c1cnn2C)C1CC1 | 50.5 mL/min/kg | 345 mL/min/kg | 29.6 µg/mL (≈ 121 µM) | 0.731 |  | 
C=CCN(c1ccc(C(=O)OC)cc1)S(=O)(=O)c1ccccc1 |  |  | 2.24 µg/mL (≈ 6.76 µM) |  |  | 
Cc1ccc(-c2cc(NC(=O)CN3CCOCC3)on2)cc1 | ≤ 4.74 mL/min/kg | 71 mL/min/kg | 52.1 µg/mL (≈ 173 µM) | 0.561 |  | 
CSc1ncccc1C(=O)Nc1ccc(-c2nnc(C)[nH]2)cc1 | ≤ 4.74 mL/min/kg | 44.1 mL/min/kg |  | 6.96 |  | 
Cc1nccc(-c2cccc(-n3ccnc3C(C)C)c2)n1 | 35.4 mL/min/kg | 500 mL/min/kg | 40.4 µg/mL (≈ 145 µM) | 1.45 |  | 
O=C(Nc1ccc(F)cc1)[C@H](O)c1ccccc1 |  |  | 42.9 µg/mL (≈ 175 µM) |  |  | 
C[C@H]1O[C@@H](Oc2c(-c3cc(O)c(O)c(O)c3)oc3cc(O)cc(O)c3c2=O)[C@@H](O)[C@H](O)[C@H]1O | ≤ 4.74 mL/min/kg | ≤ 10.7 mL/min/kg |  |  |  | 

SMILES | intrinsic clearance, human liver microsomes | intrinsic clearance, rat liver microsomes | aqueous solubility | MDR1-MDCK efflux ratio | fraction unbound, human plasma | fraction unbound, rat plasma
Cc1ccnc(N2CC(O)(c3ccc(F)cc3)C2)c1C#N | 99.1 mL/min/kg | 3630 mL/min/kg |  | 0.696 |  | 
CCc1nnnn1Cc1noc2c1CCCC2 | ≤ 4.74 mL/min/kg | 60.7 mL/min/kg | 23.2 µg/mL (≈ 99.6 µM) | 0.792 |  | 
Cc1cc(C(F)(F)F)nc(CCNC(=O)N(C)Cc2ccncc2C)n1 | 198 mL/min/kg | 734 mL/min/kg |  | 52 |  | 
O=C1NCCSc2c1sc1ccc(O)cc21 | 48.8 mL/min/kg | 95.1 mL/min/kg |  |  | 0.0779 | 0.146
CS(=O)(=O)c1ccc(-c2cnc(NCc3ccco3)n3cnnc23)cc1 | 15.7 mL/min/kg | 31.2 mL/min/kg | 36.4 µg/mL (≈ 98.5 µM) | 14.8 |  | 
Cc1nc(NCC(C)(C)c2ccccc2)n(C)n1 | 10.7 mL/min/kg | 235 mL/min/kg | 36.2 µg/mL (≈ 148 µM) | 1.07 |  | 
Cc1cc(Nc2ccc(F)cn2)cc(C2CCN(C(=O)CCc3cccc(Cl)c3)C2)n1 (stereo unspecified) | 562 mL/min/kg | 2270 mL/min/kg |  | 9.81 |  | 
COc1cc(C=C2C(=O)NN(c3ccccc3)C2=O)ccc1OCC(N)=O | 158 mL/min/kg | 277 mL/min/kg | 29.7 µg/mL (≈ 80.7 µM) |  |  | 
COc1ccc(OC)c(S(=O)(=O)NCCC(=O)Nc2ccccc2C)c1 | 51.5 mL/min/kg | 616 mL/min/kg |  | 19.9 |  | 
N#CC1(C(=O)N2CCN(Cc3ccccn3)CC2)CCCCC1 | 10.7 mL/min/kg | 805 mL/min/kg | 52.1 µg/mL (≈ 167 µM) | 1.11 |  | 
COc1cc2c(cc1OC)CN(C(=O)C1CCCN(C(=O)OC(C)(C)C)C1)CC2 (stereo unspecified) | 106 mL/min/kg | 643 mL/min/kg | 61.9 µg/mL (≈ 153 µM) | 1.79 |  | 
CC(C)[C@H](CO)Nc1nc(Nc2cc(N)cc(Cl)c2)c2ncn(C(C)C)c2n1 |  |  |  | 16.9 | 0.00867 | 0.00796
Cc1cccc(N(C)Cc2cnc(N(C)C)nc2)n1 | 57.7 mL/min/kg | 1770 mL/min/kg |  | 0.769 |  | 
CCc1nnc(N2CC(N(C)C)C2)c(C#N)c1CC | 9.15 mL/min/kg | 130 mL/min/kg |  | 0.843 |  | 
CNC(=O)c1ccc(N2CCCC2)nc1 | 44.7 mL/min/kg | 58.1 mL/min/kg | 34.7 µg/mL (≈ 169 µM) | 0.58 |  | 
CCc1cnc(CN2C(=O)NC3(CCC3)C2=O)o1 | ≤ 4.74 mL/min/kg | 51.9 mL/min/kg | 32.4 µg/mL (≈ 130 µM) | 3.63 |  | 
CCCN1CCCN(c2ncccc2C#N)CC1 | 29.4 mL/min/kg | 1680 mL/min/kg | 27.9 µg/mL (≈ 114 µM) | 0.42 |  | 
Cc1ccc(NC(=O)Cc2c[nH]c3ccccc23)cc1 |  |  | 5.6 µg/mL (≈ 21.2 µM) |  |  | 
Cc1csc(NC(=O)c2cccc(C)c2C)n1 | 173 mL/min/kg | 916 mL/min/kg | 11.3 µg/mL (≈ 45.8 µM) |  |  | 
